# Assay: Determination of the logP values by HPLC on a reverse-phase column (C 18)
# Assay type: physicochemical
# Procedure: Determination of the logP Values
# The logP values given in the table were determined in accordance with EEC Directive 79/831 Annex V.A8 by HPLC (high performance liquid chromatography) on a reverse-phase column (C 18). Temperature: 55° C.
# Mobile phases for the determination in the acidic range (pH 3.4):
# Mobile phase A: acetonitrile+1 ml of formic acid/liter. Mobile phase B: water+0.9 ml of formic acid/liter.
# Gradient: from 10% mobile phase A/90% mobile phase B to 95% mobile phase A/5% mobile phase B over 4.25 min.
# Calibration was carried out using unbranched alkan-2-ones (having 3 to 16 carbon atoms) with known logP values (determination of the logP values by the retention times using linear interpolation between two successive alkanones). The lambda max values were determined in the maxima of the chromatographic signals using the UV spectra from 200 nm to 400 nm.
# [1] = HPLC on a reverse-phase column (C 18), separated α/β isomers
# [2] = HPLC, reverse-phase C 18, acidic range (pH 3.4), 55° C.
Compound,log P* (compounds of formula (I-2-b)),log P* [1],also measured
Cc1cc(C)c(-c2ccc(Cl)cc2)cc1C1=C(OC(=O)C(C)C)C2(CCC3(CCCO3)CC2)OC1=O (stereo not drawn) [Example I-2-b-4],6.24,,
Cc1ccc(-c2ccc(F)cc2)cc1C1=C(OC(=O)C(C)C)C2(CCC3(CCCO3)CC2)OC1=O (stereo not drawn) [Example I-2-b-9],4.83,,
CC(C)C(=O)OC1=C(c2cc(-c3ccc(Cl)cc3)ccc2Cl)C(=O)OC12CCC1(CCCO1)CC2 (stereo not drawn) [Example I-2-b-12],5.26,,
Cc1cc(C)c(-c2ccc(Cl)cc2)cc1C1=C(OC(=O)C(C)C)C2(CCC3(CCCO3)CC2)OC1=O (stereo not drawn) [Example I-2-b-3],5.64,,
CCc1cc(C)cc(CC)c1C1=C(OC(=O)C(C)C)C2(CCC3(CCCO3)CC2)OC1=O (stereo not drawn) [Example I-2-b-22],5.17,,
Cc1cc(C)c(C2=C(OC(=O)C(C)(C)C)C3(CCC4(CCCO4)CC3)OC2=O)c(C)c1 (stereo not drawn) [Example I-2-b-14],4.96,,
"Cc1cc(C)c(C2=C(O)C3(CCC4(CCCO4)CC3)OC2=O)c(Br)c1 (single isomer, unassigned) [Example I-2-a-33]",,2.95,
CCOC(=O)OC1=C(c2c(CC)cc(C)cc2CC)C(=O)OC12CCC1(CCCO1)CC2 (stereo not drawn) [Example I-2-c-3],,,log P [2]: 4.68
"CCc1cc(C)cc(C)c1C1=C(O)C2(CCC3(CCCO3)CC2)OC1=O (single isomer, unassigned) [Example I-2-a-14]",,2.73,
COc1cc(C)cc(C)c1C1=C(OC(=O)C(C)(C)C)C2(CCC3(CCCO3)CC2)OC1=O (stereo not drawn) [Example I-2-b-21],4.50,,
Cc1ccc(-c2ccc(Cl)c(Cl)c2)cc1C1=C(O)C2(CCC3(CCCO3)CC2)OC1=O (stereo not drawn) [Example I-2-a-13],,4.24,
CCOC(=O)OC1=C(c2c(C)cc(C)cc2C)C(=O)O[C@]12CC[C@]1(CCCO1)CC2 [Example I-2-c-1],,,"chromatographic logP (reverse-phase HPLC column (C 18), HPLC, reverse-phase C 18, acidic range (pH 3.4), 55° C., read-out: log P): 4.09"
"CCc1cc(C)cc(C)c1C1=C(O)C2(CCC3(CCCO3)CC2)OC1=O (single isomer, unassigned) [Example I-2-a-15]",,3.21,
"CCc1cc(Br)cc(Cl)c1C1=C(O)C2(CCC3(CCCO3)CC2)OC1=O (single isomer, unassigned) [Example I-2-a-37]",,3.40,
"Cc1cc(C2=C(O)C3(CCC4(CCCO4)CC3)OC2=O)c(C)cc1Br (single isomer, unassigned) [Example I-2-a-30]",,3.28,
"COc1cccc(C)c1C1=C(O)C2(CCC3(CCCO3)CC2)OC1=O (single isomer, unassigned) [Example I-2-a-34]",,2.05,
"CCc1cc(Cl)cc(C)c1C1=C(O)C2(CCC3(CCCO3)CC2)OC1=O (single isomer, unassigned) [Example I-2-a-44]",,2.82,
Cc1ccc(-c2ccc(Cl)cc2)cc1C1=C(O)C2(CCC3(CCCO3)CC2)OC1=O (stereo not drawn) [Example I-2-a-25],,3.87,
"CCc1cc(C)cc(CC)c1C1=C(O)C2(CCC3(CCCO3)CC2)OC1=O (single isomer, unassigned) [Example I-2-a-17]",,3.47,

Compound,log P* (compounds of formula (I-2-b)),log P* [1],also measured
Cc1cc(C)c(C2=C(OC(=O)C(C)C)C3(CCC4(CCCO4)CC3)OC2=O)c(C)c1 (stereo not drawn) [Example I-2-b-8],5.12,,
"Cc1cc(C)c(C2=C(O)C3(CCC4(CCCO4)CC3)OC2=O)c(C)c1 (single isomer, unassigned) [Example I-2-a-4]",,2.52,
"Cc1cc(C2=C(O)C3(CCC4(CCCO4)CC3)OC2=O)c(Cl)cc1Cl (single isomer, unassigned) [Example I-2-a-40]",,2.60,
Cc1ccc(-c2ccc(F)cc2)cc1C1=C(O)C2(CCC3(CCCO3)CC2)OC1=O (stereo not drawn) [Example I-2-a-22],,3.0,
"Cc1cc(C)c(C2=C(O)C3(CCC4(CCCO4)CC3)OC2=O)c(C)c1 (single isomer, unassigned) [Example I-2-a-5]",,3.00,
Cc1ccc(-c2ccc(Cl)cc2)cc1C1=C(OC(=O)C(C)C)C2(CCC3(CCCO3)CC2)OC1=O (stereo not drawn) [Example I-2-b-13],5.29,,
CCOC(=O)OC1=C(c2c(CC)cc(C)cc2CC)C(=O)OC12CCC1(CCCO1)CC2 (stereo not drawn) [Example I-2-c-4],,,log P [2]: 5.28
"CCc1cc(C)cc(Br)c1C1=C(O)C2(CCC3(CCCO3)CC2)OC1=O (single isomer, unassigned) [Example I-2-a-28]",,2.73,
Cc1cc(C)c(-c2ccc(Cl)cc2)cc1C1=C(O)C2(CCC3(CCCO3)CC2)OC1=O (stereo not drawn) [Example I-2-a-26],,4.15,
Cc1ccc(C)c(C2=C(OC(=O)C(C)C)C3(CCC4(CCCO4)CC3)OC2=O)c1 (stereo not drawn) [Example I-2-b-6],4.78,,
COc1cc(C)cc(C)c1C1=C(OC(=O)C(C)C)C2(CCC3(CCCO3)CC2)OC1=O (stereo not drawn) [Example I-2-b-2],4.60,,
"CCc1cc(Br)cc(C)c1C1=C(O)C2(CCC3(CCCO3)CC2)OC1=O (single isomer, unassigned) [Example I-2-a-7]",,2.94,
Cc1cc(C)c(C2=C(OC(=O)C(C)C)C3(CCC4(CCCO4)CC3)OC2=O)c(C)c1 (stereo not drawn) [Example I-2-b-7],4.52,,
COc1cccc(C)c1C1=C(OC(=O)C(C)C)C2(CCC3(CCCO3)CC2)OC1=O (stereo not drawn) [Example I-2-b-20],4.25,,
CCc1cc(C)cc(CC)c1C1=C(OC(=O)C(C)C)C2(CCC3(CCCO3)CC2)OC1=O (stereo not drawn) [Example I-2-b-24],5.79,,
"Cc1cc(C2=C(O)C3(CCC4(CCCO4)CC3)OC2=O)c(Cl)cc1Cl (single isomer, unassigned) [Example I-2-a-41]",,3.14,
COc1cccc(C)c1C1=C(OC(=O)C(C)C)C2(CCC3(CCCO3)CC2)OC1=O (stereo not drawn) [Example I-2-b-18],3.75,,
"CCc1cc(Cl)c(C2=C(O)C3(CCC4(CCCO4)CC3)OC2=O)c(Br)c1 (single isomer, unassigned) [Example I-2-a-39]",,3.26,
Cc1ccc(C)c(C2=C(OC(=O)C(C)C)C3(CCC4(CCCO4)CC3)OC2=O)c1 (stereo not drawn) [Example I-2-b-5],4.22,,

Compound,log P* (compounds of formula (I-2-b)),log P* [1],also measured
"Cc1ccc(C)c(C2=C(O)C3(CCC4(CCCO4)CC3)OC2=O)c1 (single isomer, unassigned) [Example I-2-a-2]",,2.73,
"CCc1cc(Cl)cc(CC)c1C1=C(O)C2(CCC3(CCCO3)CC2)OC1=O (single isomer, unassigned) [Example I-2-a-9]",,3.62,
O=C1OC2(CCC3(CCCO3)CC2)C(O)=C1c1cc(-c2ccc(F)cc2)ccc1Cl (stereo not drawn) [Example I-2-a-51],,3.42,
"Cc1cc(C)c(C2=C(O)C3(CCC4(CCCO4)CC3)OC2=O)cc1C (single isomer, unassigned) [Example I-2-a-48]",,2.99,
Cc1ccc(-c2ccc(F)cc2)cc1C1=C(O)C2(CCC3(CCCO3)CC2)OC1=O (stereo not drawn) [Example I-2-a-23],,3.5,
Cc1ccc(-c2ccc(Cl)cc2)c(C)c1C1=C(O)C2(CCC3(CCCO3)CC2)OC1=O (stereo not drawn) [Example I-2-a-18],,3.52,
"CCc1cc(Cl)cc(CC)c1C1=C(O)C2(CCC3(CCCO3)CC2)OC1=O (single isomer, unassigned) [Example I-2-a-8]",,3.09,
Cc1ccc(-c2ccc(F)cc2)cc1C1=C(OC(=O)C(C)C)C2(CCC3(CCCO3)CC2)OC1=O (stereo not drawn) [Example I-2-b-10],5.38,,
O=C1OC2(CCC3(CCCO3)CC2)C(O)=C1c1cc(-c2ccc(Cl)cc2)ccc1Cl (stereo not drawn) [Example I-2-a-20],,3.25,
"CCc1cc(Br)cc(C)c1C1=C(O)C2(CCC3(CCCO3)CC2)OC1=O (single isomer, unassigned) [Example I-2-a-29]",,3.22,
O=C1OC2(CCC3(CCCO3)CC2)C(O)=C1c1cc(-c2ccc(Cl)cc2)ccc1Cl (stereo not drawn) [Example I-2-a-21],,3.79,
CCc1cc(C)cc(CC)c1C1=C(OC(=O)C(C)(C)C)C2(CCC3(CCCO3)CC2)OC1=O (stereo not drawn) [Example I-2-b-25],6.25,,
Cc1ccc(-c2ccc(Cl)c(Cl)c2)cc1C1=C(O)C2(CCC3(CCCO3)CC2)OC1=O (stereo not drawn) [Example I-2-a-12],,3.74,
"Cc1cc(C)c(C2=C(O)C3(CCC4(CCCO4)CC3)OC2=O)c(Br)c1 (single isomer, unassigned) [Example I-2-a-32]",,2.48,
COc1cccc(C)c1C1=C(OC(=O)C(C)(C)C)C2(CCC3(CCCO3)CC2)OC1=O (stereo not drawn) [Example I-2-b-19],4.16,,
"Cc1cc(C)c(-c2ccc(Cl)cc2)c(C)c1C1=C(O)C2(CCC3(CCCO3)CC2)OC1=O (single isomer, unassigned) [Example I-2-a-42]",,3.79,
Cc1cc(C)c(-c2ccc(Cl)cc2)cc1C1=C(O)C2(CCC3(CCCO3)CC2)OC1=O (stereo not drawn) [Example I-2-a-27],,3.60,
Cc1cc(C)c(C2=C(OC(=O)C(C)(C)C)C3(CCC4(CCCO4)CC3)OC2=O)c(C)c1 (stereo not drawn) [Example I-2-b-17],5.58,,
CCc1cc(C)cc(CC)c1C1=C(OC(=O)C(C)(C)C)C2(CCC3(CCCO3)CC2)OC1=O (stereo not drawn) [Example I-2-b-23],5.62,,
